Results as given in PubChem BioAssay (NCI).
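Step 1: Grow cells in 96-well plates. Step 2: Expose to compound for 48 hours at 5 concentrations. Step 3: Interpolate endpoints linearly; if unreached, use highest concentration. GI50 is the concentration that inhibits growth by half. TGI denotes the concentration required for complete inhibition of growth.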 *1 amine or outer side, *2 acyl side, *3 side chain or, on linkers, in order; H or OH if unused. Where a SMILES comes first, the peptide text is derived from it. [ ]: non-standard residue; d: D form. The star is where a group is joined. X11 = C/C=C/CC(C)C(O)[C@H](N[*:1])C(=O)[*:2]; Decanoyl = CCCCCCCCCC(=O)*; Leu(ol) = CC(C)C[C@H](N)CO; Aib = CC(C)(N)C(=O)O

Experiments:
Experiment in all cases: DTP human tumour cell line panel, 48 h
U251 CNS = tested on: U251 CNS
CCRF-CEM leukemia = tested on: CCRF-CEM leukemia
UACC-257 melanoma = tested on: UACC-257 melanoma
CAKI-1 renal = tested on: CAKI-1 renal
SF-268 CNS = tested on: SF-268 CNS
A498 renal = tested on: A498 renal
OVCAR-4 ovarian = tested on: OVCAR-4 ovarian
NCI/ADR-RES ovarian = tested on: NCI/ADR-RES ovarian
LOX IMVI melanoma = tested on: LOX IMVI melanoma
NCI-H460 lung = tested on: NCI-H460 lung
KM12 colon = tested on: KM12 colon
SW-620 colon = tested on: SW-620 colon
HOP-92 NSCLC = tested on: HOP-92 NSCLC
UO-31 renal = tested on: UO-31 renal
SNB-75 CNS = tested on: SNB-75 CNS
ACHN renal = tested on: ACHN renal
MDA-MB-435 = tested on: MDA-MB-435
EKVX NSCLC = tested on: EKVX NSCLC
OVCAR-8 ovarian = tested on: OVCAR-8 ovarian
HL-60(TB) leukemia = tested on: HL-60(TB) leukemia
NCI-H23 lung = tested on: NCI-H23 lung
SK-MEL-5 melanoma = tested on: SK-MEL-5 melanoma
A549 NSCLC = tested on: A549 NSCLC
RPMI-8226 leukemia = tested on: RPMI-8226 leukemia
SF-295 CNS = tested on: SF-295 CNS
T-47D breast = tested on: T-47D breast
BT-549 breast = tested on: BT-549 breast
HCC-2998 colon = tested on: HCC-2998 colon
HCT-116 colon = tested on: HCT-116 colon
SF-539 CNS = tested on: SF-539 CNS
SK-MEL-2 melanoma = tested on: SK-MEL-2 melanoma
IGROV1 ovarian = tested on: IGROV1 ovarian
HT29 colon = tested on: HT29 colon
MALME-3M melanoma = tested on: MALME-3M melanoma
SNB-19 CNS = tested on: SNB-19 CNS
OVCAR-5 ovarian = tested on: OVCAR-5 ovarian
SN12C renal = tested on: SN12C renal
OVCAR-3 ovarian = tested on: OVCAR-3 ovarian
HCT-15 colon = tested on: HCT-15 colon
MCF7 breast = tested on: MCF7 breast
UACC-62 melanoma = tested on: UACC-62 melanoma
TK-10 renal = tested on: TK-10 renal
MOLT-4 leukemia = tested on: MOLT-4 leukemia
M14 melanoma = tested on: M14 melanoma
NCI-H522 lung = tested on: NCI-H522 lung
K-562 leukemia = tested on: K-562 leukemia
SK-MEL-28 melanoma = tested on: SK-MEL-28 melanoma
DU-145 prostate = tested on: DU-145 prostate
MDA-MB-231 breast = tested on: MDA-MB-231 breast
COLO 205 colon = tested on: COLO 205 colon
786-0 renal = tested on: 786-0 renal
HOP-62 NSCLC = tested on: HOP-62 NSCLC
SK-OV-3 ovarian = tested on: SK-OV-3 ovarian
SR leukemia = tested on: SR leukemia
RXF 393 renal = tested on: RXF 393 renal
PC-3 prostate = tested on: PC-3 prostate
HS 578T breast = tested on: HS 578T breast
NCI-H226 lung = tested on: NCI-H226 lung

SMILES: C/C=C/CC(C)C(O)[C@H](NC(=O)[C@@H]1CCCN1C(=O)C(C)(C)NC(=O)CCCCCCCCC)C(=O)NC(C)(C)C(=O)N[C@@H](CCC(N)=O)C(=O)N[C@H](CCC(N)=O)C(=O)NC(C)(C)C(=O)NC(C)(C)C(=O)N[C@@H](CCC(N)=O)C(=O)N[C@H](CC(C)C)C(=O)N[C@H](CO)CC(C)C (stereo partly drawn) (Decanoyl-[Aib]P[X11][Aib]Q[dQ][Aib][Aib]Q[dL][Leu(ol)])
- GI50 (U251 CNS): 1460 nM
- TGI (U251 CNS): 2970 nM
- GI50 (CCRF-CEM leukemia): 1870 nM
- TGI (CCRF-CEM leukemia): 4000 nM
- GI50 (UACC-257 melanoma): 1540 nM
- TGI (UACC-257 melanoma): 3090 nM
- GI50 (CAKI-1 renal): 2210 nM
- TGI (CAKI-1 renal): 6090 nM
- GI50 (SF-268 CNS): 1750 nM
- TGI (SF-268 CNS): 3700 nM
- GI50 (A498 renal): 1990 nM
- TGI (A498 renal): 4070 nM
- GI50 (OVCAR-4 ovarian): 2950 nM
- GI50 (NCI/ADR-RES ovarian): 2390 nM
- TGI (NCI/ADR-RES ovarian): 6860 nM
- GI50 (LOX IMVI melanoma): 1720 nM
- TGI (LOX IMVI melanoma): 3450 nM
- GI50 (NCI-H460 lung): 1530 nM
- TGI (NCI-H460 lung): 3060 nM
- GI50 (KM12 colon): 1840 nM
- TGI (KM12 colon): 3680 nM
- GI50 (SW-620 colon): 2380 nM
- TGI (SW-620 colon): 7110 nM
- GI50 (HOP-92 NSCLC): 1660 nM
- TGI (HOP-92 NSCLC): 3970 nM
- GI50 (UO-31 renal): 1590 nM
- TGI (UO-31 renal): 4220 nM
- GI50 (SNB-75 CNS): 1740 nM
- TGI (SNB-75 CNS): 3220 nM
- GI50 (ACHN renal): 2500 nM
- TGI (ACHN renal): 7430 nM
- GI50 (MDA-MB-435): 1680 nM
- TGI (MDA-MB-435): 3070 nM
- GI50 (EKVX NSCLC): 1610 nM
- TGI (EKVX NSCLC): 3710 nM
- GI50 (OVCAR-8 ovarian): 1500 nM
- TGI (OVCAR-8 ovarian): 3760 nM
- GI50 (HL-60(TB) leukemia): 2200 nM
- TGI (HL-60(TB) leukemia): 5220 nM
- GI50 (NCI-H23 lung): 2090 nM
- TGI (NCI-H23 lung): 5910 nM
- GI50 (SK-MEL-5 melanoma): 1720 nM
- TGI (SK-MEL-5 melanoma): 3160 nM
- GI50 (A549 NSCLC): 2280 nM
- GI50 (RPMI-8226 leukemia): 1850 nM
- TGI (RPMI-8226 leukemia): 4260 nM
- GI50 (SF-295 CNS): 1390 nM
- TGI (SF-295 CNS): 2900 nM
- GI50 (T-47D breast): 2090 nM
- TGI (T-47D breast): 5670 nM
- GI50 (BT-549 breast): 1840 nM
- TGI (BT-549 breast): 3370 nM
- GI50 (HCC-2998 colon): 2130 nM
- TGI (HCC-2998 colon): 5250 nM
- GI50 (HCT-116 colon): 2210 nM
- TGI (HCT-116 colon): 5160 nM
- GI50 (SF-539 CNS): 1620 nM
- TGI (SF-539 CNS): 3000 nM
- GI50 (SK-MEL-2 melanoma): 1860 nM
- TGI (SK-MEL-2 melanoma): 4220 nM
- GI50 (IGROV1 ovarian): 2300 nM
- TGI (IGROV1 ovarian): 7230 nM
- GI50 (HT29 colon): 2570 nM
- GI50 (MALME-3M melanoma): 1400 nM
- TGI (MALME-3M melanoma): 2760 nM
- GI50 (SNB-19 CNS): 1550 nM
- TGI (SNB-19 CNS): 3070 nM
- GI50 (OVCAR-5 ovarian): 1870 nM
- TGI (OVCAR-5 ovarian): 3960 nM
- GI50 (SN12C renal): 1930 nM
- TGI (SN12C renal): 5350 nM
- GI50 (OVCAR-3 ovarian): 1910 nM
- TGI (OVCAR-3 ovarian): 3950 nM
- GI50 (HCT-15 colon): 2440 nM
- TGI (HCT-15 colon): 7080 nM
- GI50 (MCF7 breast): 1630 nM
- TGI (MCF7 breast): 3530 nM
- GI50 (UACC-62 melanoma): 1610 nM
- TGI (UACC-62 melanoma): 3190 nM
- GI50 (TK-10 renal): 2270 nM
- TGI (TK-10 renal): 5570 nM
- GI50 (MOLT-4 leukemia): 2100 nM
- TGI (MOLT-4 leukemia): 6440 nM
- GI50 (M14 melanoma): 1690 nM
- TGI (M14 melanoma): 3350 nM
- GI50 (NCI-H522 lung): 1670 nM
- TGI (NCI-H522 lung): 3400 nM
- GI50 (K-562 leukemia): 1660 nM
- TGI (K-562 leukemia): 4850 nM
- GI50 (SK-MEL-28 melanoma): 1690 nM
- TGI (SK-MEL-28 melanoma): 3100 nM
- GI50 (DU-145 prostate): 1460 nM
- TGI (DU-145 prostate): 2850 nM
- GI50 (MDA-MB-231 breast): 1630 nM
- TGI (MDA-MB-231 breast): 3100 nM
- GI50 (COLO 205 colon): 1610 nM
- TGI (COLO 205 colon): 3330 nM
- GI50 (786-0 renal): 1760 nM
- TGI (786-0 renal): 3330 nM
- GI50 (HOP-62 NSCLC): 1640 nM
- TGI (HOP-62 NSCLC): 3680 nM
- GI50 (SK-OV-3 ovarian): 3110 nM
- TGI (SK-OV-3 ovarian): 13300 nM
- GI50 (SR leukemia): 1950 nM
- TGI (SR leukemia): 8470 nM
- GI50 (RXF 393 renal): 2140 nM
- TGI (RXF 393 renal): 3980 nM
- GI50 (PC-3 prostate): 1140 nM
- TGI (PC-3 prostate): 3180 nM
- GI50 (HS 578T breast): 1540 nM
- TGI (HS 578T breast): 3280 nM
- GI50 (NCI-H226 lung): 1640 nM
- TGI (NCI-H226 lung): 3970 nM
